According to ChEMBL document CHEMBL1201861, “Genomics of Drug Sensitity in Cancer screening data, Wellcome Trust Sanger Institute”:
Values joined by “and” are separate entries in the source; they are usually repeats but may differ in a detail not shown here. Equal values may be shown once.

Tests used:
Experiment in all cases: cells
MC116 = assay type: functional, cell-based; settings: Homo sapiens;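 note: growth inhibition of MC116 cells, read out with a cell viability assay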
Description: SANGER: Inhibition of human MC116 cell growth in a cell viability assay.

SH-4 = assay type: functional, cell-based, Homo sapiens;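 note: growth inhibition of SH-4 cells, read out with a cell viability assay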
Description: SANGER: Inhibition of human SH-4 cell growth in a cell viability assay.

SK-MEL-2 = assay type: functional, cell-based, Homo sapiens;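 note: growth inhibition of human SK-MEL-2 cells measured with a cell viability assay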
Description: SANGER: Inhibition of human SK-MEL-2 cell growth in a cell viability assay.

DEL = assay type: functional, cell-based; settings: Homo sapiens;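 note: growth inhibition of the human DEL cell line, read out with a cell viability assay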
Description: SANGER: Inhibition of human DEL cell growth in a cell viability assay.

LC-2-ad = assay type: functional, cell-based, Homo sapiens;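 note: growth inhibition of human LC-2-ad cells, read out with a cell viability assay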
Description: SANGER: Inhibition of human LC-2-ad cell growth in a cell viability assay.

NTERA-2-cl-D1 = assay type: functional, cell-based, Homo sapiens;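 note: inhibition of cell growth, measured with a cell viability assay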
Description: SANGER: Inhibition of human NTERA-S-cl-D1 cell growth in a cell viability assay.

MPP-89 = assay type: functional, cell-based, Homo sapiens;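 note: growth inhibition of human MPP-89 cells, read out with a cell viability assay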
Description: SANGER: Inhibition of human MPP-89 cell growth in a cell viability assay.

HuP-T3 = assay type: functional, cell-based, Homo sapiens;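 note: HuP-T3 cell growth inhibition, read out with a cell viability assay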
Description: SANGER: Inhibition of human HuP-T3 cell growth in a cell viability assay.

TE-11 = assay type: functional, cell-based, Homo sapiens;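 note: growth inhibition of human TE-11 cells, read out by a cell viability assay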
Description: SANGER: Inhibition of human TE-11 cell growth in a cell viability assay.

HT-3 = assay type: functional, cell-based, Homo sapiens;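 note: growth inhibition measured with a cell viability readout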
Description: SANGER: Inhibition of human HT-3 cell growth in a cell viability assay.

GMS-10 = assay type: functional, cell-based, Homo sapiens;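 note: growth inhibition of GMS-10 cells, read out as cell viability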
Description: SANGER: Inhibition of human GMS-10 cell growth in a cell viability assay.

HT-29 = assay type: functional, cell-based, Homo sapiens;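 note: growth inhibition of human HT-29 cells, read out by a cell viability assay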
Description: SANGER: Inhibition of human HT-29 cell growth in a cell viability assay.

COR-L23 = assay type: functional, cell-based, Homo sapiens;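 note: cell viability assay measuring how strongly compounds suppress growth of COR-L23 cells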
Description: SANGER: Inhibition of human COR-L23 cell growth in a cell viability assay.

MZ2-MEL = assay type: functional, cell-based, Homo sapiens;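 note: growth inhibition of MZ2-MEL cells read out with a cell viability assay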
Description: SANGER: Inhibition of human MZ2-MEL cell growth in a cell viability assay.

TE-12 = assay type: functional, cell-based; settings: Homo sapiens;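 note: growth inhibition of TE-12 cells, read out by a cell viability assay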
Description: SANGER: Inhibition of human TE-12 cell growth in a cell viability assay.

SW1710 = assay type: functional, cell-based, Homo sapiens;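 note: growth inhibition of SW1710 cells, determined with a cell viability assay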
Description: SANGER: Inhibition of human SW1710 cell growth in a cell viability assay.

NCI-H23 = assay type: functional, cell-based, Homo sapiens;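 note: cell viability assay measuring growth inhibition of NCI-H23 cells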
Description: SANGER: Inhibition of human NCI-H23 cell growth in a cell viability assay.

PANC-08-13 = assay type: functional, cell-based, Homo sapiens;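 note: cell growth inhibition, measured with a cell viability assay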
Description: SANGER: Inhibition of human PANC-08-13 cell growth in a cell viability assay.

BHT-101 = assay type: functional, cell-based, Homo sapiens
Description: SANGER: Inhibition of human BHT-101 cell growth in a cell viability assay.

JVM-2 = assay type: functional, cell-based; settings: Homo sapiens;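 note: growth inhibition of JVM-2 cells determined by a cell viability assay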
Description: SANGER: Inhibition of human JVM-2 cell growth in a cell viability assay.

OAW-42 = assay type: functional, cell-based, Homo sapiens;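 note: growth inhibition of OAW-42 cells, read out with a cell viability assay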
Description: SANGER: Inhibition of human OAW-42 cell growth in a cell viability assay.

IST-SL1 = assay type: functional, cell-based, Homo sapiens;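 note: growth inhibition of human IST-SL1 cells, read out with a cell viability assay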
Description: SANGER: Inhibition of human IST-SL1 cell growth in a cell viability assay.

D-542MG = assay type: functional, cell-based, Homo sapiens; settings: d-542mg
Description: SANGER: Inhibition of human D-542MG cell growth in a cell viability assay.

KOSC-2 = assay type: functional, cell-based, Homo sapiens;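 note: growth inhibition of KOSC-2 cells, read out by a cell viability assay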
Description: SANGER: Inhibition of human KOSC-2 cell growth in a cell viability assay.

LOX IMVI = assay type: functional, cell-based; settings: Homo sapiens
Description: SANGER: Inhibition of human LOXIMVI cell growth in a cell viability assay.

NCI-H1623 = assay type: functional, cell-based, Homo sapiens;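 note: cell viability assay used as the read-out for growth inhibition of NCI-H1623 cells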
Description: SANGER: Inhibition of human NCI-H1623 cell growth in a cell viability assay.

LS-1034 = assay type: functional, cell-based, Homo sapiens
Description: SANGER: Inhibition of human LS-1034 cell growth in a cell viability assay.

KYSE-510 = assay type: functional, cell-based, Homo sapiens;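 note: cell viability readout used to measure how strongly growth of the cell line is suppressed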
Description: SANGER: Inhibition of human KYSE-510 cell growth in a cell viability assay.

DBTRG-05MG = assay type: functional, cell-based, Homo sapiens;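 note: cell viability assay measuring growth inhibition of human DBTRG-05MG cells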
Description: SANGER: Inhibition of human DBTRG-05MG cell growth in a cell viability assay.

KGN = assay type: functional, cell-based, Homo sapiens;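 note: growth inhibition of KGN cells, read out with a cell viability assay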
Description: SANGER: Inhibition of human KGN cell growth in a cell viability assay.

IST-MEL1 = assay type: functional, cell-based, Homo sapiens;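 note: growth inhibition of the cell line, read out with a cell viability assay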
Description: SANGER: Inhibition of human IST-MEL1 cell growth in a cell viability assay.

Capan-2 = assay type: functional, cell-based, Homo sapiens;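 note: Capan-2 cell growth inhibition, read out with a viability assay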
Description: SANGER: Inhibition of human Capan-2 cell growth in a cell viability assay.

LCLC-103H cell line = assay type: functional, cell-based, Homo sapiens
Description: SANGER: Inhibition of human LCLC-103H cell growth in a cell viability assay.

U-251 = assay type: functional, cell-based, Homo sapiens;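 note: growth inhibition of human U-251 cells, read out through a cell viability assay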
Description: SANGER: Inhibition of human U251 cell growth in a cell viability assay.

LU-134-A = assay type: functional, cell-based; settings: Homo sapiens
Description: SANGER: Inhibition of human LU-134-A cell growth in a cell viability assay.

KMOE-2 = assay type: functional, cell-based; settings: Homo sapiens;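 note: growth inhibition of human KMOE-2 cells, read out with a cell viability assay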
Description: SANGER: Inhibition of human KMOE-2 cell growth in a cell viability assay.

NCI-H650 = assay type: functional, cell-based, Homo sapiens;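 note: growth inhibition of NCI-H650 cells, read out by a viability assay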
Description: SANGER: Inhibition of human NCI-H650 cell growth in a cell viability assay.

MZ1-PC = assay type: functional, cell-based, Homo sapiens;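 note: cell viability assay measuring growth inhibition of human MZ1-PC cells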
Description: SANGER: Inhibition of human MZ1-PC cell growth in a cell viability assay.

HT-144 = assay type: functional, cell-based, Homo sapiens
Description: SANGER: Inhibition of human HT-144 cell growth in a cell viability assay.

KARPAS-299 = assay type: functional, cell-based; settings: Homo sapiens
Description: SANGER: Inhibition of human KARPAS-299 cell growth in a cell viability assay.

NCI-H2228 = assay type: functional, cell-based, Homo sapiens;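 note: growth inhibition of human NCI-H2228 cells, read out by a cell viability assay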
Description: SANGER: Inhibition of human NCI-H2228 cell growth in a cell viability assay.

FTC-133 = assay type: functional, cell-based, Homo sapiens
SW837 = assay type: functional, cell-based, Homo sapiens;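 note: growth inhibition of SW837 cells, determined with a cell viability assay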
Description: SANGER: Inhibition of human SW837 cell growth in a cell viability assay.

SK-N-AS = assay type: functional, cell-based, Homo sapiens;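 note: growth inhibition of human SK-N-AS cells, measured with a cell viability assay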
Description: SANGER: Inhibition of human SK-N-AS cell growth in a cell viability assay.

OE33 = assay type: functional, cell-based, Homo sapiens;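 note: growth inhibition of human OE33 cells, measured by a cell viability assay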
Description: SANGER: Inhibition of human OE33 cell growth in a cell viability assay.

IGROV-1 = assay type: functional, cell-based, Homo sapiens;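 note: reduction of IGROV-1 cell growth, read out with a viability assay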
Description: SANGER: Inhibition of human IGROV-1 cell growth in a cell viability assay.

SK-MEL-1 = assay type: functional, cell-based; settings: Homo sapiens;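 note: growth inhibition of human SK-MEL-1 cells, read out by a cell viability assay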
Description: SANGER: Inhibition of human SK-MEL-1 cell growth in a cell viability assay.

CAL-62 = assay type: functional, cell-based, Homo sapiens;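 note: growth inhibition of CAL-62 cells, read out with a cell viability assay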
Description: SANGER: Inhibition of human CAL-62 cell growth in a cell viability assay.

KYSE-70 cell line = assay type: functional, cell-based, Homo sapiens;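 note: cell viability assay read-out, with IC50 expressing suppression of KYSE-70 cell growth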
Description: SANGER: Inhibition of human KYSE-70 cell growth in a cell viability assay.

MN-60 = assay type: functional, cell-based; settings: Homo sapiens;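 note: growth inhibition of the MN-60 cell line, determined with a cell viability assay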
Description: SANGER: Inhibition of human MN-60 cell growth in a cell viability assay.

UO-31 = assay type: functional, cell-based; settings: Homo sapiens;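 note: cell viability assay measuring inhibition of cell growth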
Description: SANGER: Inhibition of human U031 cell growth in a cell viability assay.

Measured: IC50

Cc1cc([C@@H](C)Nc2ccccc2C(=O)O)c2nc(N3CCOCC3)cc(=O)n2c1 [AZD-6482]
> 5.12 µM: SH-4; sh-4 | SK-MEL-2; Homo sapiens, SK-MEL-2 | SK-MEL-2; sk-mel-2 | DEL | LC-2-ad; lc-2-ad | MPP-89; mpp-89 | HuP-T3; hup-t3 | TE-11; te-11 | HT-3; ht-3 | GMS-10; Homo sapiens, GMS-10 | GMS-10; gms-10 | HT-29; ht-29 | COR-L23; cor-l23 | MZ2-MEL; mz2-mel | TE-12 | NCI-H23; nci-h23 | PANC-08-13; panc-08-13 | JVM-2 | OAW-42; oaw-42 | IST-SL1; ist-sl1 | KOSC-2; kosc-2 | LOX IMVI | LS-1034; Homo sapiens, LS-1034 | LS-1034; ls-1034 | KYSE-510; Homo sapiens, KYSE-510 | KYSE-510; kyse-510 | DBTRG-05MG; dbtrg-05mg | Capan-2; capan-2 | LCLC-103H cell line; Homo sapiens, LCLC-103H | LCLC-103H cell line; lclc-103h | U-251; u-251 | LU-134-A | KMOE-2 | MZ1-PC; mz1-pc | HT-144; Homo sapiens, HT-144 | HT-144; ht-144 | KARPAS-299 | NCI-H2228; nci-h2228 | FTC-133; ftc-133 | SW837; sw837 | SK-N-AS; Homo sapiens, SK-N-AS | SK-N-AS; sk-n-as | OE33; oe33 | SK-MEL-1 | CAL-62; cal-62 | KYSE-70 cell line; kyse-70 | MN-60
4.32 µM and > 5.12 µM: KGN; kgn
> 5.12 µM and 3.13 µM: NCI-H1623; nci-h1623
0.529 µM and 1.99 µM: SW1710; sw1710
1.85 µM and > 5.12 µM: D-542MG
2.19 µM: NTERA-2-cl-D1; Homo sapiens, NTERA-2-cl-D1
2.52 µM and > 5.12 µM: IST-MEL1; ist-mel1
1.97 µM: IGROV-1; Homo sapiens, IGROV-1
> 5.12 µM and 1.16 µM: BHT-101; bht-101
2.55 µM: IGROV-1; igrov-1
4.38 µM: NTERA-2-cl-D1; ntera-2-cl-d1
1.3 µM and > 5.12 µM: NCI-H650; nci-h650
1.46 µM: MC116

O=C(c1cc(Cc2n[nH]c(=O)c3ccccc23)ccc1F)N1CCN(C(=O)C2CC2)CC1 [OLAPARIB]
1.33 µM: NTERA-2-cl-D1; Homo sapiens, NTERA-2-cl-D1
> 5 µM: MC116 | SH-4; Homo sapiens, SH-4 | SK-MEL-2; Homo sapiens, SK-MEL-2 | DEL | LC-2-ad; Homo sapiens, LC-2-ad | MPP-89; Homo sapiens, MPP-89 | HuP-T3; Homo sapiens, HuP-T3 | TE-11; Homo sapiens, TE-11 | UO-31 | HT-3; Homo sapiens, HT-3 | GMS-10; Homo sapiens, GMS-10 | HT-29; Homo sapiens, HT-29 | COR-L23; Homo sapiens, COR-L23 | MZ2-MEL; Homo sapiens, MZ2-MEL | TE-12 | SW1710; Homo sapiens, SW1710 | NCI-H23; Homo sapiens, NCI-H23 | PANC-08-13; Homo sapiens, PANC-08-13 | BHT-101; Homo sapiens, BHT-101 | JVM-2 | OAW-42; Homo sapiens, OAW-42 | IST-SL1; Homo sapiens, IST-SL1 | KOSC-2; Homo sapiens, KOSC-2 | LOX IMVI | NCI-H1623; Homo sapiens, NCI-H1623 | LS-1034; Homo sapiens, LS-1034 | KYSE-510; Homo sapiens, KYSE-510 | DBTRG-05MG; Homo sapiens, DBTRG-05MG | KGN; Homo sapiens, KGN | IST-MEL1; Homo sapiens, IST-MEL1 | Capan-2; Homo sapiens, Capan-2 | LCLC-103H cell line; Homo sapiens, LCLC-103H | U-251; Homo sapiens, U-251 | LU-134-A | KMOE-2 | NCI-H650; Homo sapiens, NCI-H650 | MZ1-PC; Homo sapiens, MZ1-PC | HT-144; Homo sapiens, HT-144 | KARPAS-299 | NCI-H2228; Homo sapiens, NCI-H2228 | FTC-133; Homo sapiens, FTC-133 | SW837; Homo sapiens, SW837 | SK-N-AS; Homo sapiens, SK-N-AS | OE33; Homo sapiens, OE33 | SK-MEL-1 | CAL-62; Homo sapiens, CAL-62 | KYSE-70 cell line; Homo sapiens, KYSE-70 | MN-60
